Columns and labels:
[1] = supported liquid membrane transport into aqueous reextraction solution; format: physicochemical; settings: for Percentage transported in 6 h. 237 Np / Percentage transported in 6 h. 239 Pu / Percentage transported in 6 h. 241 Am / Percentage of 239Pu transported in 24 h / Percentage transported in 24 h. 237 Np / Percentage transported in 24 h. 241 Am: supported liquid membrane, 0.001 or 0.0001M calixarene (CMPO 10^-2 M); for Permeability (cm/h) 237 Np / Permeability (cm/h) 239 Pu / Permeability (cm/h) 241 Am: CELGARD 2500 membrane, nitrophenylhexyl ether with 0.001 or 0.0001M calixarene (CMPO 10^-2 M), reextraction 1 mole/l methylene diphosphonic acid
From the text: These examples use the second embodiment of the process according to the invention for extracting europium, neptunium, plutonium and americium from aqueous solutions having the same compositions as those used in examples 7 to 16. These examples use the device shown in the attached drawing.
This device comprises an enclosure 1 subdivided into two compartents 3 and 5 by a supported liquid membrane 7, constituted by a microporous polypropylene membrane marketed under the name CELGARD 2500 and having the following characteristics:
membrane thickness: 0.025 mm.
The pores of this membrane are filled with an organic phase constituted by nitrophenylhexyl ether incorporating 0.001 or 0.0001M of calixarene.
Compartment 3 contains 50 ml of aqueous solution (NaNO3 :4 mole/l, HNO3 : 1mole/l with Eu, Np, Pu, Am); and compartment 5 contains 50ml of an aqueous reextraction solution constituted by an aqueous solution with 1 mole/l of methylene diphosphonic acid.
The two solutions are stirred and the initial activity of the solution of compartment 3 is determined, followed by the activity of the aqueous reextraction solution of compartment 5 by liquid α spectrometry and the operation is continued for one day. From it is deduced the percentage of neptunium, plutonium, americium and europium recovered in the aqueous reextraction solution after 6 and 24 h.
The calixarenes used, the permeability (in cm h^-1) of the membrane to Np and Pu, as well as the %, at the end of 6 and 24 h,of Eu, Am, Np and Pu recovered are given in table 3.

[2] = liquid-liquid extraction from aqueous nitric solution, distribution coefficient D; format: physicochemical; settings: aqueous HNO3, NaNO3 4 mole/l; for D(distribution coefficient) 152-Eu: pH ≈0, 1 hour contacting; for D(distribution coefficient) 237-Np / D(distribution coefficient) 239-Pu / D(distribution coefficient) 241-Am: 1 hour
Protocol: In these examples, an evaluation takes place of the effectiveness of the calixarenes of table 1 for extracting plutonium, neptunium and americium, as well as europium (simulating all the trivalent lanthanides) of an aqueous solution containing one of these elements. The composition of the aqueous solution is as follows:
[…] Contacting takes place in a 20 ml polypropylene tube, which undergoes stirring. After 1 hour of contacting, the two phases are allowed to settle and the activity of each phase is counted by liquid scintillation or α and γ spectrometries.
The distribution coefficient D is then determined and this corresponds to the ratio of the activity of actinide in the organic phase to the activity of actinide in the aqueous phase.

[3] = calixarene 0.001M in nitrophenyloctylether
[4] = calixarene 0.001M in nitrophenyloctylether, * = precipitation

In the case of `CCCCCOc1c2cc(NC(=O)CP(=O)(c3ccccc3)c3ccccc3)cc1Cc1cc(NC(=O)CP(=O)(c3ccccc3)c3ccccc3)cc(c1OCCCCC)Cc1cc(NC(=O)CP(=O)(c3ccccc3)c3ccccc3)cc(c1OCCCCC)Cc1cc(NC(=O)CP(=O)(c3ccccc3)c3ccccc3)cc(c1OCCCCC)C2` [Compound 8], the “Percentage transported in 6 h. 237 Np” value [1] is reported as 8.5%, the “Percentage transported in 6 h. 239 Pu” value [1] is reported as 79.6% and the “Percentage transported in 6 h. 241 Am” value [1] is reported as 99%. The “Percentage of 239Pu transported in 24 h” value [1] was 80%, the “Percentage transported in 24 h. 237 Np” value [1] was 14.5% and the “Percentage transported in 24 h. 241 Am” value [1] was 100%. The “Permeability (cm/h) 237 Np” value [1] was under 0.2 cm/h, the “Permeability (cm/h) 239 Pu” value [1] was 3.6 cm/h and the “Permeability (cm/h) 241 Am” value [1] was 3.4 cm/h. For the same molecule, the “D(distribution coefficient) 152-Eu” value [2, 3] was over 100, the “D(distribution coefficient) 237-Np” value [2, 4] was 2 and the “D(distribution coefficient) 239-Pu” value [2, 4] was 100. The “D(distribution coefficient) 241-Am” value [2, 4] was 250.

For `CCCCCCCCOc1c2cc(NC(=O)CP(=O)(c3ccccc3)c3ccccc3)cc1Cc1cc(NC(=O)CP(=O)(c3ccccc3)c3ccccc3)cc(c1OC)Cc1cc(NC(=O)CP(=O)(c3ccccc3)c3ccccc3)cc(c1OCCCCCCCC)Cc1cc(NC(=O)CP(=O)(c3ccccc3)c3ccccc3)cc(c1OC)C2` [Compound 9], the “Percentage transported in 6 h. 237 Np” value [1] was 52.4%, the “Percentage transported in 6 h. 239 Pu” value [1] was 84.1% and the “Percentage transported in 6 h. 241 Am” value [1] was 91.3%. The “Percentage of 239Pu transported in 24 h” value [1] was 86%, the “Percentage transported in 24 h. 237 Np” value [1] was 75.2% and the “Percentage transported in 24 h. 241 Am” value [1] was 100%. The “Permeability (cm/h) 237 Np” value [1] was 1.6 cm/h, the “Permeability (cm/h) 239 Pu” value [1] was 4.2 cm/h and the “Permeability (cm/h) 241 Am” value [1] was 2.9 cm/h. For the same molecule, the “D(distribution coefficient) 152-Eu” value [2, 3] was over 100, the “D(distribution coefficient) 237-Np” value [2, 4] was 2 and the “D(distribution coefficient) 239-Pu” value [2, 4] was 110. For the same molecule, the “D(distribution coefficient) 241-Am” value [2, 4] was 280.

With `CCCCC(CC)COc1c2cc(NC(=O)CP(=O)(c3ccccc3)c3ccccc3)cc1Cc1cc(NC(=O)CP(=O)(c3ccccc3)c3ccccc3)cc(c1OCC(CC)CCCC)Cc1cc(NC(=O)CP(=O)(c3ccccc3)c3ccccc3)cc(c1OCC(CC)CCCC)Cc1cc(NC(=O)CP(=O)(c3ccccc3)c3ccccc3)cc(c1OCC(CC)CCCC)C2` (stereo not drawn) [Compound 10] the “Percentage transported in 6 h. 237 Np” value [1] was 19.8%, the “Percentage transported in 6 h. 239 Pu” value [1] was 53.5% and the “Percentage transported in 6 h. 241 Am” value [1] was 27.8%. The “Percentage of 239Pu transported in 24 h” value [1] was 76.6%, the “Percentage transported in 24 h. 237 Np” value [1] was 30.4% and the “Percentage transported in 24 h. 241 Am” value [1] was 62.4%. The “Permeability (cm/h) 237 Np” value [1] was 0.6 cm/h, the “Permeability (cm/h) 239 Pu” value [1] was 2 cm/h and the “Permeability (cm/h) 241 Am” value [1] was 0.5 cm/h. The “D(distribution coefficient) 152-Eu” value ([2]; calixarene 0.0005M) was 1.5, the “D(distribution coefficient) 237-Np” value ([2]; calixarene 0.0005M) was 2 and the “D(distribution coefficient) 239-Pu” value ([2]; calixarene 0.0005M) was 20. The “D(distribution coefficient) 241-Am” value ([2]; calixarene 0.0005M) was 4.5.

From patent publication US5866087A, “Calixarene derivatives, their preparation process and their use for extracting actinides and lanthanides” (priority 1995, dated 1999)
